The values below come from patent US20230085307A1, “PYRIDAZINONE COMPOUND AND HERBICIDE” (NISSAN CHEMICAL CORPORATION, priority 2019, published 2023).

For assay [1], the system named is Chinese sprangletop. Kind of assay: Test Example 3: herbicidal effect by foliage application, Wagner pot (Table 18, symbol D). Format: in vivo, chinese sprangletop (Leptochloa chinensis). To be noted: amount of applied herbicide 320 g/ha. In a few lines: (§1)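 Plants were sown in alluvial soil held under 0.1–0.5 cm standing water and grown 14 days in a greenhouse at 25–30 °C. An emulsifiable formulation, water-diluted to the set dose, was then sprayed onto the foliage, and effects were scored three weeks later using previously defined criteria.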

The subject of assay [2] is Japanese bulrush. The assay can be described thus: Test Example 1: herbicidal activity, application before weed generation under submerged conditions (Table 16, symbol B). Particulars: 320 g/ha applied herbicide. The format is in vivo, Japanese bulrush (Schoenoplectus juncoides). In a few lines:
(§2)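 Alluvial soil was flooded to 4 cm depth, weed seeds were sown mixed and 2.5-leaf rice seedlings were transplanted. On sowing day, the compound's emulsion, diluted in water to a set dose, was applied to the water surface. Plants grew at 25–30 °C and were scored 0–5 after three weeks.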

Assay [3] concerns southern crabgrass. The assay can be described thus: Test Example 4: herbicidal effect by soil treatment (Table 19, symbol F). The format is in vivo, southern crabgrass (Digitaria ciliaris). To be noted: amount of applied herbicide 320 g/ha. Summed up: (§3)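 Emulsion of test compound, water-diluted to predetermined amount, sprayed on soil after sowing (seed depth ~1.5 cm, sterilized diluvial soil). Greenhouse, 25–30° C. Effect graded at three weeks post-spray.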

Assay [4] has as its system chickweed. The assay can be described thus: Test Example 4: herbicidal effect by soil treatment (Table 19, symbol P). Particulars: amount of applied herbicide 320 g/ha. The format is in vivo, common chickweed (Stellaria media). In a few lines: as §3
Assay [5] concerns oval-leafed pondweed. Kind of assay: Test Example 1: herbicidal activity, application before weed generation under submerged conditions (Table 16, symbol C). Format: in vivo, oval-leafed pondweed (Monochoria vaginalis). To be noted: 320 g/ha applied herbicide. In a few lines:
as §2

Assay [6] relates to Italian ryegrass. Kind of assay: Test Example 4: herbicidal effect by soil treatment (Table 19, symbol K). The format is in vivo, Italian ryegrass (Lolium multiflorum). Particulars: amount of applied herbicide 320 g/ha. In a few lines:
as §3

In assay [7] the test system is late watergrass. The assay can be described thus: Test Example 1: herbicidal activity, application before weed generation under submerged conditions (Table 16, symbol A). Particulars: 320 g/ha applied herbicide. The format is in vivo, late watergrass (Echinochloa oryzicola). In a few lines: as §2
Assay [8] has as its system rice flat sedge. The assay can be described thus: Test Example 3: herbicidal effect by foliage application, Wagner pot (Table 18, symbol E). Format: in vivo, rice flat sedge (Cyperus iria). To be noted: amount of applied herbicide 320 g/ha. In a few lines:
as §1

Assay [9] deals with barnyard grass. Kind of assay: Test Example 3: herbicidal effect by foliage application, Wagner pot (Table 18, symbol H). The format is in vivo, barnyard grass (Echinochloa crus-galli). To be noted: amount of applied herbicide 320 g/ha. In a few lines:
as §1

Assay [10] has as its system blackgrass. The assay can be described thus: Test Example 4: herbicidal effect by soil treatment (Table 19, symbol J). Format: in vivo, blackgrass (Alopecurus myosuroides). Particulars: amount of applied herbicide 320 g/ha. Summed up:
as §3

Assay [11] relates to barnyard grass. The assay can be described thus: Test Example 4: herbicidal effect by soil treatment (Table 19, symbol H). Format: in vivo, barnyard grass (Echinochloa crus-galli). Particulars: amount of applied herbicide 320 g/ha. In a few lines: as §3
Assay [12] deals with lambsquarters. Kind of assay: Test Example 4: herbicidal effect by soil treatment (Table 19, symbol O). Particulars: amount of applied herbicide 320 g/ha. The format is in vivo, lambsquarters (Chenopodium album). Summed up: as §3
For assay [13], the system named is velvetleaf. The assay can be described thus: Test Example 4: herbicidal effect by soil treatment (Table 19, symbol M). Format: in vivo, velvetleaf (Abutilon theophrasti). Particulars: amount of applied herbicide 320 g/ha. In a few lines: as §3
The test system of assay [14] is redroot pigweed. Kind of assay: Test Example 4: herbicidal effect by soil treatment (Table 19, symbol N). The format is in vivo, redroot pigweed (Amaranthus retroflexus). To be noted: amount of applied herbicide 320 g/ha. In a few lines: as §3
Assay [15] deals with persian speedwell. The assay can be described thus: Test Example 4: herbicidal effect by soil treatment (Table 19, symbol R). To be noted: amount of applied herbicide 320 g/ha. The format is in vivo, Persian speedwell (Veronica persica). In a few lines:
as §3

Assay [16] has as its system green foxtail. Kind of assay: Test Example 4: herbicidal effect by soil treatment (Table 19, symbol G). Format: in vivo, green foxtail (Setaria viridis). Particulars: amount of applied herbicide 320 g/ha. In a few lines:
as §3

Assay [17] deals with wild oat. Kind of assay: Test Example 4: herbicidal effect by soil treatment (Table 19, symbol I). The format is in vivo, wild oat (Avena fatua). Particulars: amount of applied herbicide 320 g/ha. Summed up:
as §3

For assay [18], the system named is windgrass. Kind of assay: Test Example 4: herbicidal effect by soil treatment (Table 19, symbol L). Format: in vivo, windgrass (Apera spica-venti). To be noted: amount of applied herbicide 320 g/ha. Summed up: as §3

The structures appear in SMILES notation.

Take `CCCC(=O)Oc1c(C)nn(C)c(=O)c1-c1c(-c2ccc(Cl)cc2OC)sc2ccc(F)cc12` [2-369]: in assay [1], the “herbicidal effect on D: Chinese sprangletop” value is given as 5 (Herbicidal rate of 90% or more (almost completely withered)). The “Herbicidal effect on B: Japanese bulrush (grade 0-5)” value in [2] is on record as 0 (Herbicidal rate of 5% or less (almost no effect)). In assay [3], the “herbicidal effect, F: southern crabgrass” value is 0 (Herbicidal rate of 5% or less (almost no effect)). Also, the “herbicidal effect, P: chickweed” value in [4] is recorded as 0 (Herbicidal rate of 5% or less (almost no effect)). Also, the “Herbicidal effect on C: oval-leafed pondweed (grade 0-5)” value in [5] is 2 (Herbicidal rate of 20% or more and less than 40%). The “herbicidal effect, K: Italian ryegrass” value in [6] is listed as 0 (Herbicidal rate of 5% or less (almost no effect)). In [7], the “Herbicidal effect on A: late watergrass (grade 0-5)” value was 0 (Herbicidal rate of 5% or less (almost no effect)). In addition, in assay [8], the “herbicidal effect on E: rice flat sedge” value was 4 (Herbicidal rate of 70% or more and less than 90%). In [9], the “herbicidal effect on H: barnyard grass” value is 4 (Herbicidal rate of 70% or more and less than 90%). The “herbicidal effect, J: blackgrass” value in [10] was 0 (Herbicidal rate of 5% or less (almost no effect)). Moreover, the “herbicidal effect, H: barnyard grass” value in assay [11] was 0 (Herbicidal rate of 5% or less (almost no effect)). For the same compound, in assay [12], the “herbicidal effect, O: lambsquarters” value is reported as 0 (Herbicidal rate of 5% or less (almost no effect)). Moreover, the “herbicidal effect, M: velvetleaf” value in assay [13] is given as 0 (Herbicidal rate of 5% or less (almost no effect)). The “herbicidal effect, N: redroot pigweed” value in [14] is 0 (Herbicidal rate of 5% or less (almost no effect)). Also, the “herbicidal effect, R: persian speedwell” value in assay [15] is 0 (Herbicidal rate of 5% or less (almost no effect)). Besides, in [16], the “herbicidal effect, G: green foxtail” value is recorded as 0 (Herbicidal rate of 5% or less (almost no effect)). Further, the “herbicidal effect, I: wild oat” value in [17] is 0 (Herbicidal rate of 5% or less (almost no effect)). For the same compound, the “herbicidal effect, L: windgrass” value in assay [18] is 3 (Herbicidal rate of 40% or more and less than 70%).

As to `Cc1nn(C)c(=O)c(-c2c(-c3ccc(OC(F)F)cc3)sc3ccc(Cl)cc23)c1O` [2-374], in [1], the “herbicidal effect on D: Chinese sprangletop” value is 4 (Herbicidal rate of 70% or more and less than 90%). In addition, in assay [2], the “Herbicidal effect on B: Japanese bulrush (grade 0-5)” value is 0 (Herbicidal rate of 5% or less (almost no effect)). Moreover, the “herbicidal effect, F: southern crabgrass” value in [3] was 4 (Herbicidal rate of 70% or more and less than 90%). Besides, the “herbicidal effect, P: chickweed” value in [4] was 3 (Herbicidal rate of 40% or more and less than 70%). Besides, the “Herbicidal effect on C: oval-leafed pondweed (grade 0-5)” value in assay [5] was 0 (Herbicidal rate of 5% or less (almost no effect)). Further, the “herbicidal effect, K: Italian ryegrass” value in assay [6] was 4 (Herbicidal rate of 70% or more and less than 90%). For the same compound, the “Herbicidal effect on A: late watergrass (grade 0-5)” value in [7] is 3 (Herbicidal rate of 40% or more and less than 70%). In addition, the “herbicidal effect on E: rice flat sedge” value in [8] is 5 (Herbicidal rate of 90% or more (almost completely withered)). Moreover, the “herbicidal effect on H: barnyard grass” value in assay [9] is 5 (Herbicidal rate of 90% or more (almost completely withered)). Also, the “herbicidal effect, J: blackgrass” value in [10] is 3 (Herbicidal rate of 40% or more and less than 70%). Besides, the “herbicidal effect, H: barnyard grass” value in assay [11] is 4 (Herbicidal rate of 70% or more and less than 90%). Moreover, the “herbicidal effect, O: lambsquarters” value in assay [12] was 5 (Herbicidal rate of 90% or more (almost completely withered)). Also, in [13], the “herbicidal effect, M: velvetleaf” value is 3 (Herbicidal rate of 40% or more and less than 70%). The “herbicidal effect, N: redroot pigweed” value in [14] was 4 (Herbicidal rate of 70% or more and less than 90%). Besides, the “herbicidal effect, R: persian speedwell” value in [15] is 5 (Herbicidal rate of 90% or more (almost completely withered)). In [16], the “herbicidal effect, G: green foxtail” value is 1 (Herbicidal rate of 5% or more and less than 20%). Further, the “herbicidal effect, I: wild oat” value in assay [17] is on record as 0 (Herbicidal rate of 5% or less (almost no effect)). Further, in assay [18], the “herbicidal effect, L: windgrass” value was 5 (Herbicidal rate of 90% or more (almost completely withered)).
